Data on 3 compounds can be found in ChEMBL document CHEMBL4765481, “Sialyltransferase Inhibitors Suppress Breast Cancer Metastasis” (J Med Chem, 2021).

The source made the active and inactive calls. No cut-off for these calls is given here.

For data set [1], the system named is MDA-MB-231. As to the kind of experiment: Antiangiogenesis activity against luciferase-tagged human MDA-MB-231 cells xenografted in BALB/c mouse assessed as reduction in cell proliferation by measuring Ki67 expression at 10 mg/kg/3 days, ip measured after 50 days by immunostaining. It is filed as functional, organism-based. The following applies: time 50.0 day. For orientation: In xenograft studies the graft and the host belong to different species.

The subject of data set [2] is MDA-MB-231. As to the kind of experiment: Antiangiogenesis activity against luciferase-tagged human MDA-MB-231 cells xenografted in BALB/c mouse assessed as reduction in number of vessels surrounding tumor nodules by measuring CD31 expression at 10 mg/kg/3 days, ip measured after 50 days by immunostaining. It is filed as functional, organism-based. As to conditions: time 50.0 day.

Data set [3] deals with MDA-MB-231. As to the kind of experiment: Antitumor activity against luciferase-tagged human MDA-MB-231 cells xenografted in BALB/c mouse assessed as induction of delayed lung metastasis at 10 mg/kg/3 days, ip measured after 50 days. In kind it is functional, organism-based. The following applies: time 50.0 day.
The subject of data set [4] is MDA-MB-231. As to the kind of experiment: Antitumor activity against luciferase-tagged human MDA-MB-231 cells xenografted in BALB/c mouse assessed as reduction in number of metastatic foci in lungs at 10 mg/kg/3 days, ip measured after 50 days by histological analysis. It is filed as functional, organism-based. The following applies: time 50.0 day.
Data set [5] relates to MDA-MB-231. As to the kind of experiment: Antitumor activity against luciferase-tagged human MDA-MB-231 cells xenografted in BALB/c mouse assessed as reduction in metastatic nodules in lymph node at 10 mg/kg/3 days, ip measured after 50 days by H and E staining based histological analysis. It is filed as functional, organism-based. The following applies: time 50.0 day.
The test system of data set [6] is MDA-MB-231. As to the kind of experiment: Antitumor activity against luciferase-tagged human MDA-MB-231 cells xenografted in BALB/c mouse assessed as induction of tumor suppression at 10 mg/kg/3 days, ip measured after 50 days. In kind it is functional, organism-based. As to conditions: time 50.0 day.
For data set [7], the target named is T1, CMP-N-acetylneuraminate-beta-1,4-galactoside alpha-2,3-sialyltransferase (Rattus norvegicus, UniProt Q02734).
T1 sequence (Q02734 whole entry): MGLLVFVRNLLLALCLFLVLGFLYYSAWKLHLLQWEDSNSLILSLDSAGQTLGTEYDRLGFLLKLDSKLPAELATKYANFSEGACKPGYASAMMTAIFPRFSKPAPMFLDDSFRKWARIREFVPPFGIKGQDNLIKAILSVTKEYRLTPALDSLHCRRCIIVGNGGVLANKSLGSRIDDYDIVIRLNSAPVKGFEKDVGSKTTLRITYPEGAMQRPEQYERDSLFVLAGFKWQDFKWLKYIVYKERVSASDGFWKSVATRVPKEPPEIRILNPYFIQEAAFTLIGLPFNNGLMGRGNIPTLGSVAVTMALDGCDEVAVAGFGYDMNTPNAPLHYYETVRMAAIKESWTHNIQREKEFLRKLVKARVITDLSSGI
Put plainly: Inhibition of rat alpha-2,3-N-ST3GALIII assessed as reduction in sialylated-product formation using Gal-beta1-4Glc and CMP-NeuSAc incubated for 1.5 hrs by reverse-phase HPLC analysis.

Data set [8] is described as follows: Selectivity ratio of IC50 for of inhibition of rat alpha-2,3-O-ST3GALI to IC50 for inhibition of human alpha-2,6-ST6GAL1.
Data set [9] addresses T2, Beta-galactoside alpha-2,6-sialyltransferase 1 (Homo sapiens, UniProt P15907).
T2 sequence (P15907 whole entry): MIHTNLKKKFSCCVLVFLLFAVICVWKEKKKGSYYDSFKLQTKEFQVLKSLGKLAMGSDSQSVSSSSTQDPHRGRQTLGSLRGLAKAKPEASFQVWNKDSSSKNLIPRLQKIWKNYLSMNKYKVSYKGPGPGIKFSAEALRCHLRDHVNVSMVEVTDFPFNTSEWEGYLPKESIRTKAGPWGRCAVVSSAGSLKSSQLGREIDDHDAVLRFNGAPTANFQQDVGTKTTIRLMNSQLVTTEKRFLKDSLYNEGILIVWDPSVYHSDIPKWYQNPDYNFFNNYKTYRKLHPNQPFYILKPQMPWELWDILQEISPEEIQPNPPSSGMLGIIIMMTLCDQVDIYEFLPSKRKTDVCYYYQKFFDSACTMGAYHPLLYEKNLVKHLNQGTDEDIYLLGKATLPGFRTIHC
As to the kind of experiment: Inhibition of human alpha-2,6-ST6GAL1 assessed as reduction in sialylated-product formation using Gal-beta1-4GlcNac and CMP-NeuSAc incubated for 15 mins by reverse-phase HPLC analysis.

The species entered for data set [10] is Rattus norvegicus. As to the kind of experiment: Selectivity ratio of IC50 for of inhibition of rat alpha-2,3-O-ST3GALI to IC50 for inhibition of rat alpha-2,3-N-ST3GALIII.
Data set [11] addresses T3, Sialyltransferase ST3Gal-I (Rattus norvegicus, UniProt Q6H8N0).
T3 sequence (Q6H8N0 whole entry): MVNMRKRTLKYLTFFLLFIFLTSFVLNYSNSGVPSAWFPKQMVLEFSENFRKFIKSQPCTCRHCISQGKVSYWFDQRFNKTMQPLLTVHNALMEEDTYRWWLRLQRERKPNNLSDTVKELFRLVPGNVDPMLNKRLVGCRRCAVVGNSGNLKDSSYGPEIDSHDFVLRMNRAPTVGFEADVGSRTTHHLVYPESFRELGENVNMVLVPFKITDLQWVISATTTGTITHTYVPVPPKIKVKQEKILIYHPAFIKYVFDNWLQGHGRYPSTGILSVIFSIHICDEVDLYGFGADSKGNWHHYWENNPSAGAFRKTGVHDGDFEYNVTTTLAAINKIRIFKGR
As to the kind of experiment: Inhibition of rat alpha-2,3-O-ST3GALI assessed as reduction in sialylated-product formation using p-nitrophenyl T-antigen and CMP-NeuSAc incubated for 15 mins by reverse-phase HPLC analysis.

Data set [12] concerns MDA-MB-231. Put plainly: Inhibition of Sialyltransferase in human MDA-MB-231 cells assessed as reduction in NFkappaB Ser536 phosphorylation level at 10 to 20 uM incubated for 48 hrs by immunoblot analysis. It is filed as cell-based. As to conditions: dose 10-20 µM. Background: Immunoblotting shows a protein as a band on a membrane.
Data set [13] deals with MDA-MB-231. As to the kind of experiment: Inhibition of serum-induced cell migration of human MDA-MB-231 cells incubated for 16 hrs by Boyden chamber assay. It is filed as functional, cell-based. The following applies: MDA-MB-231, 16 h.
Data set [14] concerns MDA-MB-231. Put plainly: Inhibition of Sialyltransferase in human MDA-MB-231 cells assessed as reduction in FAK Tyr576/577 phosphorylation level at 10 to 20 uM incubated for 48 hrs by immunoblot analysis. The following applies: dose 10-20 µM. In kind it is cell-based.
Data set [15] has as its system MDA-MB-231. As to the kind of experiment: Inhibition of Sialyltransferase in human MDA-MB-231 cells assessed as reduction in IkappaB-alpha Ser32 phosphorylation level at 10 to 20 uM incubated for 48 hrs by immunoblot analysis. In kind it is cell-based. As to conditions: dose 10-20 µM.
Data set [16] is described as follows: Apparent permeability at pH 7.4 by PAMPA.
Data set [17] can be described thus: Toxicity in human MDA-MB-231 cells assessed as cell survival at >60 uM relative to control. It is filed as cell-based. As to conditions: read-out: Survival.
Data set [18] has as its target T4, Sialyltransferase ST3Gal-I (Rattus norvegicus) (UniProt Q6H8N0).
T4 sequence (whole entry): T3 sequence (Q6H8N0 whole entry)
Put plainly: Inhibition of rat alpha-2,3-O-ST3GALI assessed as reduction in sialylated-product formation at 1 mM using p-nitrophenyl T-antigen and CMP-NeuSAc incubated for 15 mins by reverse-phase HPLC analysis relative to control.

Data set [19] has as its system MDA-MB-231. As to the kind of experiment: Inhibition of Sialyltransferase in human MDA-MB-231 cells assessed as decrease p-talin-1 association with integrins beta1 and beta 3 after 48 hrs by immunofluorescence and coimmunoprecipitation assay. It is filed as cell-based.
The species entered for data set [20] is Rattus norvegicus. As to the kind of experiment: Selectivity ratio of inhibition of rat alpha-2,3-O-ST3GALI at 1000 uM to IC50 for inhibition of rat alpha-2,3-N-ST3GALIII.
For data set [21], the system named is MDA-MB-231. As to the kind of experiment: Inhibition of serum-induced cell migration of human MDA-MB-231 cells at 20 uM incubated for 16 hrs by Boyden chamber assay. It is filed as functional, cell-based.
Data set [22] relates to MDA-MB-231. Put plainly: Inhibition of Sialyltransferase in human MDA-MB-231 cells assessed as reduction in FAK Tyr397 phosphorylation level at 10 to 20 uM incubated for 48 hrs by immunoblot analysis. In kind it is cell-based. The following applies: dose 10-20 µM.
In data set [23] the target is T4, Sialyltransferase ST3Gal-I (Rattus norvegicus). As to the kind of experiment: Inhibition of rat alpha-2,3-O-ST3GALI assessed as reduction in sialylated-product formation at 500 uM using p-nitrophenyl T-antigen and CMP-NeuSAc incubated for 15 mins by reverse-phase HPLC analysis relative to control.
The test system of data set [24] is MDA-MB-231. Put plainly: Inhibition of Sialyltransferase in human MDA-MB-231 cells assessed as reduction in integrin isoforms expression (alphaV/alpha5/beta1/beta3/beta4/beta5) at 10 to 20 uM incubated for 48 hrs by immunoblot analysis. It is filed as cell-based. The following applies: dose 10-20 µM.
Data set [25] deals with MDA-MB-231. Put plainly: Inhibition of Sialyltransferase in human MDA-MB-231 cells assessed as suppression of sialylation of integrin subunit beta1/beta3/beta4/beta5 at 10 to 20 um after 48 hrs by Western blot analysis. It is filed as cell-based. As to conditions: dose 10-20 µM.
In data set [26] the test system is MDA-MB-231. Put plainly: Inhibition of Sialyltransferase in human MDA-MB-231 cells assessed as reduction in IKKalpha/beta Ser176/180 phosphorylation level at 10 to 20 uM incubated for 48 hrs by immunoblot analysis. In kind it is cell-based. The following applies: dose 10-20 µM.
For data set [27], the species on record is Rattus norvegicus. Put plainly: Selectivity ratio of inhibition of rat alpha-2,3-O-ST3GALI at 500 uM to IC50 for inhibition of rat alpha-2,3-N-ST3GALIII.
For data set [28], the system named is MDA-MB-231. As to the kind of experiment: Inhibition of Sialyltransferase in human MDA-MB-231 cells assessed as reduction in FAK Tyr925 phosphorylation level at 10 to 20 uM incubated for 48 hrs by immunoblot analysis. In kind it is cell-based. The following applies: dose 10-20 µM.
The test system of data set [29] is MDA-MB-231. Put plainly: Inhibition of Sialyltransferase in human MDA-MB-231 cells assessed as reduction in paxillin Tyr118 phosphorylation level at 10 to 20 uM incubated for 48 hrs by immunoblot analysis. It is filed as cell-based. The following applies: dose 10-20 µM.

In the case of `CC(=O)O[C@H]1C(=O)[C@@]2(C)[C@H]([C@H](OC(=O)c3ccccc3)[C@]3(O)C[C@H](OC(=O)[C@H](O)[C@@H](NC(=O)c4ccccc4)c4ccccc4)C(C)=C1C3(C)C)[C@]1(OC(C)=O)CO[C@@H]1C[C@@H]2O`, the outcome in the data set on MDA-MB-231 [1], with MDA-MB-231 [2], with MDA-MB-231 [3], with MDA-MB-231 [4], in the data set with MDA-MB-231 [5] and in the data set with MDA-MB-231 [6] was Active.

The term IC50 denotes the concentration that gives 50% inhibition. Take `C[C@H](CCC(=O)O)[C@H]1CC[C@H]2[C@@H]3CC[C@@H]4C[C@H](OC(=O)[C@@H](N)CC(=O)O)CC[C@]4(C)[C@H]3CC[C@]12C`: the IC50 came out at 12 µM in [7], 15.8 µM in data set [9] and 39 µM in data set [11]. Besides, the Ratio IC50 (in data set [8]; in the data set filed under Rattus norvegicus [10]) was 3 throughout.

The inhibition is the relative decrease from the control value, in per cent. What is called Papp is the rate of passage across a membrane or cell layer, normalised by area and donor concentration. Consider `C[C@H](CCC(=O)OCCOCCOCCOCCN=[N+]=[N-])[C@H]1CC[C@H]2[C@@H]3CC[C@@H]4C[C@H](OC(=O)[C@H](CC(=O)O)Nc5ccc([N+](=O)[O-])c6nonc56)CC[C@]4(C)[C@H]3CC[C@]12C`, for which the inhibition result in the data set with MDA-MB-231 [12], in the data set with MDA-MB-231 [15], in the data set on MDA-MB-231 [21], in the data set on MDA-MB-231 [25] and with MDA-MB-231 [26] was “Active” each time. Moreover, the IC50 in the data set on MDA-MB-231 [13] was 12 µM; in [7] it was 1.01 µM; in data set [9], 4.9 µM. The inhibition result in the data set with MDA-MB-231 [14] is “Dose-dependent effect”; in data set [18], 50%; with MDA-MB-231 [19], “Dose-dependent effect”; in the data set with MDA-MB-231 [22], “Dose-dependent effect”; in data set [23] it was 0%; in the data set with MDA-MB-231 [24], “Dose-dependent effect”. In addition, the inhibition result in the data set with MDA-MB-231 [28] and in the data set on MDA-MB-231 [29] was “Dose-dependent effect” each time. Further, the Ratio IC50 in [8] is greater than 102. Further, in [16], the Papp was determined as 9 ×10⁻⁶ cm/s. The viability in data set [17] was greater than 90%. Moreover, the Selectivity ratio in the data set listed under Rattus norvegicus [20] was less than 990; in the data set listed under Rattus norvegicus [27], greater than 495.
